From PubChem BioAssay AID2743 (NMMLSC, 2010)
Activity calls are given as the source filed them.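 How the source made its calls: active means fitted half-maximal concentration for change in GFP expression of 33 µM or less; inactive means the rest.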

Experiment: potency of AGP1-GFP expression modulators in yeast, dose response, cell-based, flow cytometry, S. cerevisiae, MLPCN hits (AID 2743)
Conditions: S. cerevisiae AGP1-GFP strain, flow cytometry GFP, 3 h; at 33 µM (top of the series)

| SMILES | GFP fluorescence (kMESF) |
| --- | --- |
| C[C@H]1C[C@@H](C)C(=O)[C@@H]([C@H](O)CC2CC(=O)NC(=O)C2)C1 | 25.3 kMESF (inactive) |
| Cc1cc2ccccn2c1C(=O)c1ccc([N+](=O)[O-])o1 | 26 kMESF (inactive) |
| N/C(=N\OC(=O)c1cc(Br)ccc1Cl)c1ccccn1 | 31.3 kMESF (inactive) |
| CC1=NNC(=O)/C1=C\c1cn(-c2ccccc2)nc1-c1ccccc1 | 40.4 kMESF (inactive) |
| O=S(=O)(c1ccccc1)c1ccc(C(F)(F)F)cn1 | 43.8 kMESF (inactive) |
| COc1cc(/C=C2\C(=O)N(CCC#N)N=C2C)c(Br)cc1OC(C)C | 43.5 kMESF (inactive) |
| O=C1N(c2ccccc2C(F)(F)F)O[C@@]1(c1ccccc1)C1CCCC1 | 38.4 kMESF (inactive) |
| CCOc1ccc(NC2=C(Cl)C(=O)N(Cc3ccccc3)C2=O)cc1 | 41.3 kMESF (inactive) |
| Cc1ccc(/C=c2\sc3nc(-c4cccs4)nn3c2=O)o1 | 42.1 kMESF (inactive) |
| COc1ccc(N=Cc2nc(-c3ccccc3)oc2OC(=O)c2ccccc2)cc1 | 39.5 kMESF (inactive) |
| Cc1cc(C)nc(S/C=C/C(=O)c2ccccc2)n1 | 44.8 kMESF (inactive) |
| CCCCCCCCn1sccc1=O | 31.5 kMESF (inactive) |
| N/C(Cc1ccc(Cl)cc1Cl)=N\OC(=O)c1ccccc1 | 29.1 kMESF (inactive) |
| Cc1cc(C)c(C)c(S(=O)(=O)ON2C(=O)c3ccccc3C2=O)c1C | 40 kMESF (inactive) |
| COc1ccc(C(=O)/C=C2/C(=O)Nc3ccccc32)cc1OC | 43.9 kMESF (inactive) |
| O=C1C(Cl)=C(Nc2ccccc2O)C(=O)N1c1ccccc1 | 38.4 kMESF (inactive) |
| Cc1ccc2[nH]c(C)c(/C=C/c3cc[n+](C)cc3)c2c1 | 38.4 kMESF (inactive) |
| C#CCOCCOCCOCCNc1nc(N2CCN(C(=O)CCCCCCCCCCNC(=O)[C@H](CCCCN)n3cc(CCO)nn3)CC2)nc(N2CCN(C(=O)CCCCCCCCCCNC(=O)[C@H](CCCN=C(N)N)n3cc(C[C@@H](C)CC)nn3)CC2)n1 | 45.1 kMESF (inactive) |
| COc1ccc(N2C(=O)C(Cl)=C(NCc3ccccc3)C2=O)cc1 | 40.6 kMESF (inactive) |
| CC(=O)Oc1ccc(N2C(=O)C3C4C=CC(O4)C3C2=O)cc1 (centres undefined) | 45.2 kMESF (inactive) |
| Cc1cc(NC(c2ccc(Cl)cc2)c2ccc3cccnc3c2O)no1 (centres undefined) | 34 kMESF (inactive) |
| O=C(C#Cc1ccccc1)c1cccc([N+](=O)[O-])c1 | 52 kMESF (inactive) |
| CCOc1ccccc1/C=c1\sc2ncnn2c1=O | 39.5 kMESF (inactive) |

| SMILES | GFP fluorescence (kMESF) |
| --- | --- |
| O=C(Nc1ccc(Cl)cc1Cl)c1cccc(N2C(=O)C=CC2=O)c1 | 41.1 kMESF (inactive) |
| CC1=C(C)/C(=N\OS(=O)(=O)c2ccc(C)cc2)C=CC1=O | 31.9 kMESF (inactive) |
| CN(C)C(=O)Oc1ccnc2cc(Cl)ccc12 | 42.3 kMESF (inactive) |
| C#CCOCCOCCOCCNc1nc(N2CCN(C(=O)CCCCCCCCCCNC(=O)[C@H](CCCCN)n3cc(CCCC(=O)O)nn3)CC2)nc(N2CCN(C(=O)CCCCCCCCCCNC(=O)[C@H](CCCN=C(N)N)n3cc(C[C@@H](C)CC)nn3)CC2)n1 | 42.4 kMESF (inactive) |
| COc1cc(N=c2ssnc2Cl)cc(OC)c1 | 38.8 kMESF (inactive) |
| CCc1nc2ccccc2c(=O)n1NC(=O)c1c(O)c2ccccc2n(CC)c1=O | 18.7 kMESF (inactive) |
| Clc1cnc(N/N=C/c2cccs2)c(Cl)c1 | 40.5 kMESF (inactive) |
| O=C(CSC1=NS(=O)(=O)c2ccccc21)Nc1ccccc1 | 27.1 kMESF (inactive) |
| O=C1C=CC(=O)N1c1ccc(OC(F)F)cc1 | 27.8 kMESF (inactive) |
| CC(C)Oc1ccc(C(=O)/C=C2/C(=O)Nc3ccccc32)cc1 | 46.3 kMESF (inactive) |
| O=C1NC(=O)N(Cc2ccco2)C(=O)/C1=C/c1ccc(-c2cccc([N+](=O)[O-])c2)o1 | 34.8 kMESF (inactive) |
| O=C1C(=O)c2ccccc2-c2ccccc21 | 17.5 kMESF (inactive) |
| CC(C)[C@]1(c2ccccc2)ON(c2ccccc2C(F)(F)F)C1=O | 34.2 kMESF (inactive) |
| CCOC(=O)/C(=C\c1cn(C)c2ccccc12)[N+](=O)[O-] | 41.9 kMESF (inactive) |
| CCOC(=O)c1cc(-c2ccc(/C=C3/C(=O)NC(=O)C(C#N)=C3C)o2)ccc1Cl | 28.2 kMESF (inactive) |
| N=C1/C(=C\c2coc3ccccc3c2=O)C(=O)N=C2SC(c3ccncc3)=NN12 | 44.7 kMESF (inactive) |
| c1ccc(-c2cccc(-c3ccccn3)n2)nc1 | 38.3 kMESF (inactive) |
| C[C@@]12C(=O)OC(=O)[C@]1(C)C1CCC2O1 | 32.6 kMESF (inactive) |
| CCOc1ccc(N2C(=O)/C(=C\c3cccs3)C(=O)NC2=S)cc1 | 27.9 kMESF (inactive) |
| COc1ccc(CCNC2=C(Cl)C(=O)N(CCc3ccccc3)C2=O)cc1OC | 42 kMESF (inactive) |
| CC(C)[C@@]1(c2ccccc2)ON(c2ccccc2C(F)(F)F)C1=O | 37.1 kMESF (inactive) |
| COC(=O)/C(=C/c1c[nH]c2ccccc12)[N+](=O)[O-] | 39.1 kMESF (inactive) |
| O=C1Nc2ccc(Br)cc2/C1=C/C(=O)c1ccc2c(c1)OCO2 | 46.7 kMESF (inactive) |

| SMILES | GFP fluorescence (kMESF) |
| --- | --- |
| Cc1ccc(NN2C(=O)C=C(c3ccc(Cl)cc3)C2=O)cc1 | 44.4 kMESF (inactive) |
| Cc1cc(NC(=O)c2cccnc2Cl)ccc1NC(=O)c1cc2ccccc2o1 | 42.4 kMESF (inactive) |
| CCOc1ccc(N2C(=O)C(Cl)=C(Nc3ccccc3O)C2=O)cc1 | 43.1 kMESF (inactive) |
| O=C(NCc1ccc2c(c1)OCO2)c1nc(S(=O)(=O)Cc2ccccc2)ncc1Cl | 40.9 kMESF (inactive) |
| COc1ccc(C(c2c(C)[nH]n(C(N)=S)c2=O)C(C#N)C#N)cc1 (centres undefined) | 44.2 kMESF (inactive) |
| CCOC(=O)c1c(C)oc2c1c(C(c1cccnc1)N1CCOCC1)c(O)c1ccccc12 (centres undefined) | 29.9 kMESF (inactive) |
| CCOC(=O)c1ccc(N=Cc2nc(-c3ccccc3)oc2OC(C)=O)cc1 | 33.5 kMESF (inactive) |
| CC(C)(C)c1nnc(N/N=C/c2cc(Br)ccc2O)n(N)c1=O | 34.2 kMESF (inactive) |
| Cc1ccnc(N2C(=O)c3cccc4c([N+](=O)[O-])ccc(c34)C2=O)c1 | 54.7 kMESF (inactive) |
| O=C1C2C3C=CC(CO)(O3)C2C(=O)N1c1ccc(-c2ccccc2)cc1 (centres undefined) | 40.8 kMESF (inactive) |
| Oc1c(I)cc(I)c2cccnc12 | 24.6 kMESF (inactive) |
| COc1cccc(N=Cc2nc(-c3ccccc3)oc2OC(C)=O)c1 | 35.9 kMESF (inactive) |
| O=C1NC(=S)NC(=O)C1=Cc1ccc2c(c1)CCN2CCCCl | 35 kMESF (inactive) |
| COc1ccc(-c2cc3nc4n(c(=O)c3s2)CCC4)cc1 | 23.3 kMESF (inactive) |
| CCCc1cc(N2CCN(c3ccccn3)CC2)n2nc(C)c(-c3ccccc3)c2n1 | 38.8 kMESF (inactive) |
| O=C1ON=C(c2ccc(Cl)cc2)/C1=C/c1ccc(O)cc1 | 23.3 kMESF (inactive) |
| On1ccccc1=S | 35.2 kMESF (inactive) |
| CCc1cc(C(=O)Nc2nc(-c3ccccn3)cs2)sc1C | 29.2 kMESF (inactive) |
| C=CCN1C(=O)/C(=C/c2cccs2)C(=O)NC1=S | 20.4 kMESF (inactive) |
| O=C(OCn1ncc(Br)c(Br)c1=O)c1ccccc1Cl | 46 kMESF (inactive) |
| COC(CNC(=O)c1ccc2c3c(onc13)-c1ccccc1C2=O)OC | 1.89 kMESF (inactive) |
| CC(C)(C)n1nc(-c2ccc(F)cc2)c2c(N)ncnc21 | 40.2 kMESF (inactive) |
| N#C/C(=C\c1ccccn1)c1nc2ccccc2s1 | 41.8 kMESF (inactive) |

| SMILES | GFP fluorescence (kMESF) |
| --- | --- |
| O=c1oc(/C=C/c2ccc([N+](=O)[O-])s2)nc2ccccc12 | 37.9 kMESF (inactive) |
| CC(=O)CSc1ncnc2c1cnn2-c1ccccc1 | 38.5 kMESF (inactive) |
| O=[N+]([O-])c1cc(Cl)c2cccnc2c1O | 22.6 kMESF (inactive) |
| Cc1ccc(/C=C2\C(=O)NC(=S)N(c3ccc(F)cc3)C2=O)s1 | 31.9 kMESF (inactive) |
| O=C(O)c1ccn2c(C(=O)c3ccccc3)c(-c3ccccc3)cc2c1 | 37.7 kMESF (inactive) |
| O=c1c(-c2ccc(Cl)cc2)[n+]([O-])c2ccccc2n1O | 38.1 kMESF (inactive) |
| CC(C)C(=O)NC(c1cccs1)c1cc([N+](=O)[O-])c2cccnc2c1O (centres undefined) | 38.9 kMESF (inactive) |
| O=S(=O)(/N=C(/Sc1ccccc1)c1ccccc1)c1ccccc1 | 41 kMESF (inactive) |
| CC(=O)Oc1oc(-c2ccccc2)nc1C=Nc1ccccc1 | 33.5 kMESF (inactive) |
| COc1cc(/C=C2\C(=O)ON=C2c2ccccc2)cc(Br)c1O | 28.7 kMESF (inactive) |
| CCCOc1ccc(C(=O)NNC(=S)NC(=O)c2ccccc2)cc1 | 45.1 kMESF (inactive) |
| CCOC(=O)Cn1cc(/C=C/[N+](=O)[O-])c2ccccc21 | 43.7 kMESF (inactive) |
| Oc1ccc(CNc2ccccc2)c2cccnc12 | 36.5 kMESF (inactive) |
| O=C(Oc1oc(-c2ccco2)nc1C=Nc1ccccc1)c1ccoc1 | 44.7 kMESF (inactive) |
| COc1ccc(C(=O)NC(=S)NNC(=O)c2cnccn2)cc1OC | 30.2 kMESF (inactive) |
| CCC(=O)Nc1ccc(NC(=O)c2cc3ccccc3o2)cc1 | 43.4 kMESF (inactive) |
| Cc1ccc(C(=O)NNC(=S)NC(=O)c2ccco2)cc1 | 44.1 kMESF (inactive) |
| COc1ccc(NC(=O)/C(C#N)=C/c2ncc([N+](=O)[O-])n2C)c(OC)c1 | 45.2 kMESF (inactive) |
| CN(c1ccccc1)c1ccc(/C=c2\s/c(=C(/C#N)C(=O)C(C)(C)C)n(Cc3ccco3)c2=O)cc1 | 38 kMESF (inactive) |
| CC(Oc1cc2oc(=O)c3c(c2cc1Cl)CCC3)C(=O)NCCN1CCOCC1 (centres undefined) | 34.8 kMESF (inactive) |
